# Test results reported in publication PMC6934184, “Selective DNA-PKcs inhibition extends the therapeutic index of localized radiotherapy and chemotherapy” (The Journal of Clinical Investigation, 2019).
# Molecular target: T1, PIK3CD/PIK3R1 (p110δ/p85α) (Homo sapiens, UniProt O00329)
# T1 construct: purchased Thermo Fisher Scientific (Life Technologies) SelectScreen
# Assay: SelectScreen Adapta
# Type: biochemical
# Conditions: ATP Km app
# Outline: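 NU5455 was profiled across the SelectScreen Broad panel of kinase activity and binding assays. Z'LYTE reactions such as CSF1R ran at apparent Km ATP, while the Adapta CAMK1 assay used ATP listed as 10. Values are given as percent.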
# T1 sequence (O00329 whole entry): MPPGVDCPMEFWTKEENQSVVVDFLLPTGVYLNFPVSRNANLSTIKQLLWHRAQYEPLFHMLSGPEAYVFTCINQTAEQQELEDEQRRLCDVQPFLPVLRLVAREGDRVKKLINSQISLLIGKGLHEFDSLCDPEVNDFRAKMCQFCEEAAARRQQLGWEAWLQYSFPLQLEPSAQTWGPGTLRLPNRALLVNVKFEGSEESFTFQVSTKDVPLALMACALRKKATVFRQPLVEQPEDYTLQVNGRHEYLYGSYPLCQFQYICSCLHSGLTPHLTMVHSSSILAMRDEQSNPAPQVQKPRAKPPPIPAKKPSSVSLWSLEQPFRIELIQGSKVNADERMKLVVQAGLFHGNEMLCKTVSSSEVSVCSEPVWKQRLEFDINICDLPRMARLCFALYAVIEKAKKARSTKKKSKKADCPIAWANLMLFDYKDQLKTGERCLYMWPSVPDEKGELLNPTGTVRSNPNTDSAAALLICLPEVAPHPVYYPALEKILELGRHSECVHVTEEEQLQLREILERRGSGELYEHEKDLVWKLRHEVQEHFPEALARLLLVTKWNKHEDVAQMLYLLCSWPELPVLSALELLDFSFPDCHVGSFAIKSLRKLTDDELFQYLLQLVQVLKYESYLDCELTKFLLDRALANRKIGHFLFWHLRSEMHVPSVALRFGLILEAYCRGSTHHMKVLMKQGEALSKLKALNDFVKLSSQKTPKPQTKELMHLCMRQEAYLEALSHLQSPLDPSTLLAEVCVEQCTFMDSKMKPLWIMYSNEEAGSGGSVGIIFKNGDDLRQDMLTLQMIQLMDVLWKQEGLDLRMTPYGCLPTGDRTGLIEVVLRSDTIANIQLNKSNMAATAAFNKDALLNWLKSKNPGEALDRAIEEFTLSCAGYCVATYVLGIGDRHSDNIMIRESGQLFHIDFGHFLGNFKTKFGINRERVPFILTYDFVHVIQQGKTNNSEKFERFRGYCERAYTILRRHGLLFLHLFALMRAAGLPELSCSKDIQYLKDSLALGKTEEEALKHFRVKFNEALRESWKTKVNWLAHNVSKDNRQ
# T1 sequence (P27986 whole entry partner): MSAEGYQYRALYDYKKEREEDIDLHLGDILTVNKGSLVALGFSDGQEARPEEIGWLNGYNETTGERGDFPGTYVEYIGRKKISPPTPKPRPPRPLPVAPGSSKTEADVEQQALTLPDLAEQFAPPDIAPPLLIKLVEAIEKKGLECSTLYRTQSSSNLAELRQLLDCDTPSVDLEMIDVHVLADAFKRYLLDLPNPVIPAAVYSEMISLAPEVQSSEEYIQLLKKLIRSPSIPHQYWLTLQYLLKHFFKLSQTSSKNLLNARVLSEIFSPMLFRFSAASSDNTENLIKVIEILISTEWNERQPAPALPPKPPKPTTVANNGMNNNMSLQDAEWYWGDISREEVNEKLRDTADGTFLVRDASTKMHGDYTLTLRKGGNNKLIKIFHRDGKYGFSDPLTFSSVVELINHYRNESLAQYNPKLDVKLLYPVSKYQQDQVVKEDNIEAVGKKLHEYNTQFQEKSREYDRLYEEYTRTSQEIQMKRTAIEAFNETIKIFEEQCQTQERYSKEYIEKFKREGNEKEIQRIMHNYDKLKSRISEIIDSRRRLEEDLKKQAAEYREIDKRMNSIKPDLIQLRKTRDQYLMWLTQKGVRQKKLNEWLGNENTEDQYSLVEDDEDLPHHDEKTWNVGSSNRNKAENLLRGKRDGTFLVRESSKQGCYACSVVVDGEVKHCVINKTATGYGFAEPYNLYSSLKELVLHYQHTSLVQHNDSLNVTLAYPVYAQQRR
smiles,measurement,setting,value
CN(C(=O)CN1CCOCC1)c1ccc2sc3c(-c4cccc5c(=O)cc(N6CC7CCC(C6)O7)oc45)cccc3c2c1 [NU5455],% inhibition,1 µM,57%
same,inhibition at 1 µM,,57.5%
